{"source": "patent US10272086B2", "about": "(CHANG GUNG MEMORIAL HOSPITAL, LINKOU, priority 2013, dated 2019)", "key": {"[1]": {"target": "T1, glucocorticoid receptor (GR) (Homo sapiens, UniProt P04150)", "T1 construct": "host or cells: PC-3", "T1 sequence (P04150 1-777)": "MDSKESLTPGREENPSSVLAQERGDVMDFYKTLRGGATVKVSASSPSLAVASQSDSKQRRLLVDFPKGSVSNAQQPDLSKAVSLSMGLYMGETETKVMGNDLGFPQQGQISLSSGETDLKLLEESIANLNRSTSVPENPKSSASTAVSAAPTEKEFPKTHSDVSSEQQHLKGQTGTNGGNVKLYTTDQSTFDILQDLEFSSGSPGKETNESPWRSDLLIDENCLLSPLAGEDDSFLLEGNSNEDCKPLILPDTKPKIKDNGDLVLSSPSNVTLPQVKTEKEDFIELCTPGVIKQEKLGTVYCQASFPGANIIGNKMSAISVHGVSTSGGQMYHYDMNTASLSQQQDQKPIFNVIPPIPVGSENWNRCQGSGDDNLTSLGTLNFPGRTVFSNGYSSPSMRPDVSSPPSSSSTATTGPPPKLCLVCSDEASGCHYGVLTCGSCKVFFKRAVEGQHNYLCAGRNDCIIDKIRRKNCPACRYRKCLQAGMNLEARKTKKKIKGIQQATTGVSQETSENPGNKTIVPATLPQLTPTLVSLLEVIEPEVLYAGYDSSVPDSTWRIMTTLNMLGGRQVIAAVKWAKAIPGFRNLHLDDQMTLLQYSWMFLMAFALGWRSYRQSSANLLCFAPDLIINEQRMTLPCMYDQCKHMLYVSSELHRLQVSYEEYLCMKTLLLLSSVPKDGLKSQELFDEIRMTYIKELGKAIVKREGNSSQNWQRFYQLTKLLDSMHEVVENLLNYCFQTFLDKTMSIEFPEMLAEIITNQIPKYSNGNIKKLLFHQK", "experiment": "Glucocorticoid receptor transcriptional activity reporter assay in PC-3 cells (control study)", "assay_type": "cell-based"}, "[2]": {"tested_on": "PSA (prostate specific antigen) protein expression", "experiment": "Western blot of AR regulated PSA protein expression in LNCaP cells", "assay_type": "cell-based, human", "conditions": "10^−3˜10^−5 M Minoxidil, 24 h", "method": "The cells were prepared for electrophoresis on SDS/PAGE gel and then transferred onto nitrocellulose (Minipore, Billerica, USA). AR, PSA and beta-actin proteins were identified using anti-AR (N-20 from Santa Cruz Biotechnology, Santa Cruz, USA), anti-PSA (C-19 from Santa Cruz Biotechnology, Santa Cruz, USA), or […] (MAB1501 from Millipore, Billerica, USA) respectively. Images were shown using alkaline phosphatase substrate color kit (Bio-Rad, Hercules, USA)."}, "[3]": {"experiment": "Double-blind clinical trial of topical Minoxidil versus placebo in patients with acne", "assay_type": "in vivo, human", "method": "A double-blind clinical trial is conducted, in which topical Minoxidil and placebo are administered to patients with acne."}, "[4]": {"experiment": "Topical 5% Minoxidil on an acne on a patient's face, two applications", "assay_type": "in vivo, human"}, "[5]": {"experiment": "Topical Minoxidil on forehead acne in a patient, 7-day course", "assay_type": "in vivo, human", "method": "An in vivo evaluation of topical Minoxidil on acne was carried out in a patient. […] In addition, there was less new […] formation on the left (treated) forehead compared to the right (untreated) forehead."}}}
{"smiles": "Nc1cc(N2CCCCC2)nc(N)[n+]1[O-]", "note": "[Minoxidil, 6-piperidin-1-ylpyrimidine-2,4-diamine 3-oxide]", "values": [{"measurement": "GR transcriptional activity", "setting": "[1]; highest concentration 100 μM", "result": "did affect GR transcriptional activity"}, {"measurement": "GR transcriptional activity", "setting": "[1]; lower concentrations 1-10 μM", "result": "did not"}, {"measurement": "AR regulated PSA protein expression", "setting": "[2]", "result": "effective in inhibiting AR regulated PSA protein expression in the presence of DHT, in a dose dependent manner"}, {"measurement": "Symptoms and signs of acne in comparison with the placebo group", "setting": "[3]", "result": "statistically significant reduction in the symptoms and signs of acne"}, {"measurement": "Erythema and swelling around the acne", "setting": "[4]; 5% Minoxidil, topical, after two applications", "result": "significant reduction in erythema and swelling around the acne"}, {"measurement": "Efficacy in treating acne", "setting": "[4]; 5% topical Minoxidil, 48-hour period", "result": "effective in treating acne"}, {"measurement": "New pimple formation, treated versus untreated forehead", "setting": "[5]; 5% Minoxidil solution, topical, once a day for 7 days", "result": "less new pimple formation on the left (treated) forehead"}, {"measurement": "Pimples on treated forehead", "setting": "[5]; 5% Minoxidil solution, topical, once a day for 7 days, left forehead treated, right forehead control", "result": "disappearance of pimples on the left (treated) forehead"}, {"measurement": "Healing time of acne", "setting": "[5]; 5% topical Minoxidil, 7-day course", "result": "faster healing time"}]}
